Experimental data: US20210300936A1, “PYRAZOLOTRIAZOLOPYRIMIDINE DERIVATIVES AS A2A RECEPTOR ANTAGONIST” (BEIGENE, LTD., priority 2018, published 2021)

Target: human A2A receptor (A2AR) (Homo sapiens, UniProt P29274)
Test: Luciferase reporter assay (HEK293-A2AR-luc2p/CRE/Hygro cells, 3 nM CGS21680)
Assay type: cell-based
Details: 3 nM CGS21680, 5 h incubation
In short: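 HEK293 cells stably expressing A2AR with a CRE-luc2P reporter were seeded in 1% FBS with 1 U/mL adenosine deaminase. After 18 h, cells got 3 nM CGS21680 plus antagonist at 0.1–10000 nM for 5 h, followed by a luciferase readout. IC50 is relative to the 3 nM CGS21680 signal, set as 100%.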

human A2A receptor (A2AR), sequence (P29274 whole entry): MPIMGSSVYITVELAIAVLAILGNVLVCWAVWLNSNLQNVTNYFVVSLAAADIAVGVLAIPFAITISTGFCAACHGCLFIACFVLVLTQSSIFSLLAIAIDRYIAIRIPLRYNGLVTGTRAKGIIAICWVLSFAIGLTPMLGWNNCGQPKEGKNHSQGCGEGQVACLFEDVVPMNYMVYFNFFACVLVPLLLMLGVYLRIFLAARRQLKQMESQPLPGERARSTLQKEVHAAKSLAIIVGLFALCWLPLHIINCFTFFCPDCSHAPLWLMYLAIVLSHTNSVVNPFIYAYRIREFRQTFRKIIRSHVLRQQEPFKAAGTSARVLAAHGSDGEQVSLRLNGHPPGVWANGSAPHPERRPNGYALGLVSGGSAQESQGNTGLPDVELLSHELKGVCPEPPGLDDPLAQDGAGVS

| IC50 [nM] | Compound |
| --- | --- |
| 43.8 | COCCOc1ccc(N2CCN(C(=O)C(COC)n3ncc4c3nc(N)n3nc(-c5ccco5)nc43)CC2)cc1 (centres unmarked) [Compound A26, 2-(5-amino-2-(furan-2-yl)-7H-pyrazolo[4,3-e][1,2,4]triazolo[1,5-c]pyrimidin-7-yl)-3-methoxy-1-(4-(4-(2-methoxyethoxy)phenyl)piperazin-1-yl)propan-1-one] |
| 18.4 | COCCOc1ccc(N2CC(C)N(C(=O)C(c3ccccc3)n3ncc4c3nc(N)n3nc(-c5ccco5)nc43)C(C)C2)cc1 (centres unmarked) [Compound A59, 2-(5-amino-2-(furan-2-yl)-7H-pyrazolo[4,3-e][1,2,4]triazolo[1,5-c]pyrimidin-7-yl)-1-(4-(4-(2-methoxyethoxy)phenyl)-2,6-dimethylpiperazin-1-yl)-2-phenylethan-1-one] |
| 4.8 | CN(C)CCOc1ccc(N2CCN(C(=O)C(C)(c3ccccc3)n3ncc4c3nc(N)n3nc(-c5ccco5)nc43)CC2)cc1 (single isomer, unassigned) [Compound A71b] |
| 8.4 | COCCOc1ccc(N2CCN(C(=O)C(C3CC3)n3ncc4c3nc(N)n3nc(-c5ccco5)nc43)CC2)cc1 (centres unmarked) [Compound A15, 2-(5-amino-2-(furan-2-yl)-7H-pyrazolo[4,3-e][1,2,4]triazolo[1,5-c]pyrimidin-7-yl)-2-cyclopropyl-1-(4-(4-(2-methoxyethoxy)phenyl)piperazin-1-yl)ethan-1-one] |
| 1870 | COCCOc1ccc(N2CCN(C(=O)C(C)(C)n3cc4c(nc(N)n5nc(-c6ccco6)nc45)n3)CC2)cc1 [Compound C3, 2-(5-amino-2-(furan-2-yl)-8H-pyrazolo[4,3-e][1,2,4]triazolo[1,5-c]pyrimidin-8-yl)-1-(4-(4-(2-methoxyethoxy)phenyl)piperazin-1-yl)-2-methylpropan-1-one] |
| 186 | CCCC(C(=O)N1CCN(c2ccc(OCCOCCOC)cc2)CC1)n1cc2c(nc(N)n3nc(-c4ccco4)nc23)n1 (centres unmarked) [Compound C7, 2-(5-amino-2-(furan-2-yl)-8H-pyrazolo[4,3-e][1,2,4]triazolo[1,5-c]pyrimidin-8-yl)-1-(4-(4-(2-(2-methoxyethoxy)ethoxy)phenyl)piperazin-1-yl)pentan-1-one] |
| > 10000 | COCCOc1ccc(N2CCN(C(=O)C(C3CCNCC3)n3ncc4c3nc(N)n3nc(-c5ccco5)nc43)CC2)cc1 (centres unmarked) [Compound A58, 2-(5-amino-2-(furan-2-yl)-7H-pyrazolo[4,3-e][1,2,4]triazolo[1,5-c]pyrimidin-7-yl)-1-(4-(4-(2-methoxyethoxy)phenyl)piperazin-1-yl)-2-(piperidin-4-yl)ethan-1-one] |
| 12.7 | CC(C(=O)N1CCN(c2ccc(OCCN)cc2)CC1)n1cc2c(nc(N)n3nc(-c4ccco4)nc23)n1 (centres unmarked) [Compound C13, 2-(5-amino-2-(furan-2-yl)-8H-pyrazolo[4,3-e][1,2,4]triazolo[1,5-c]pyrimidin-8-yl)-1-(4-(4-(2-aminoethoxy)phenyl)piperazin-1-yl)propan-1-one] |
| 10.1 | C[C@@](C(=O)N1CCN(c2ccc(F)cc2)CC1)(c1ccccc1)n1ncc2c1nc(N)n1nc(-c3ccco3)nc21 [Compound A70a, (S)-2-(5-amino-2-(furan-2-yl)-7H-pyrazolo[4,3-e][1,2,4]triazolo[1,5-c]pyrimidin-7-yl)-1-(4-(4-fluorophenyl)piperazin-1-yl)-2-phenylpropan-1-one] |
| 88.2 | COCCOc1ccc(N2CCN(C(=O)C(c3ccccc3)n3ncc4c3nc(N)n3nc(-c5ccco5)nc43)C(C)C2)cc1 (single isomer, unassigned) [Compound A50a] |
| 7.5 | CN(C)CCOc1ccc(N2CCN(C(=O)C(C)(c3ccccc3)n3ncc4c3nc(N)n3nc(-c5ccco5)nc43)CC2)cc1 (centres unmarked) [Compound A71, 2-(5-amino-2-(furan-2-yl)-7H-pyrazolo[4,3-e][1,2,4]triazolo[1,5-c]pyrimidin-7-yl)-1-(4-(4-(2-(dimethylamino)ethoxy)phenyl)piperazin-1-yl)-2-phenylpropan-1-one] |
| 112 | CC(C(=O)N1CCc2cc(F)ccc2C1)(c1ccccc1)n1ncc2c1nc(N)n1nc(-c3ccco3)nc21 (centres unmarked) [Compound B19, 2-(5-amino-2-(furan-2-yl)-7H-pyrazolo[4,3-e][1,2,4]triazolo[1,5-c]pyrimidin-7-yl)-1-(6-fluoro-3,4-dihydroisoquinolin-2(1H)-yl)-2-phenylpropan-1-one] |
| 2.2 | COCCOc1ccc2c(c1)CCN(C(=O)C(c1ccccc1)n1ncc3c1nc(N)n1nc(-c4ccco4)nc31)C2 (centres unmarked) [Compound B15, 2-(5-amino-2-(furan-2-yl)-7H-pyrazolo[4,3-e][1,2,4]triazolo[1,5-c]pyrimidin-7-yl)-1-(6-(2-methoxyethoxy)-3,4-dihydroisoquinolin-2(1H)-yl)-2-phenylethan-1-one] |
| 6.2 | COc1ccccc1N1CCN(C(=O)C(C)(c2ccccc2)n2ncc3c2nc(N)n2nc(-c4ccco4)nc32)CC1 (centres unmarked) [Compound A78, 2-(5-amino-2-(furan-2-yl)-7H-pyrazolo[4,3-e][1,2,4]triazolo[1,5-c]pyrimidin-7-yl)-1-(4-(2-methoxyphenyl)piperazin-1-yl)-2-phenylpropan-1-one] |
| 16 | CC(C(=O)N1CC2(COC2)C1)(c1ccccc1)n1ncc2c1nc(N)n1nc(-c3ccco3)nc21 (centres unmarked) [Compound B22, 2-(5-amino-2-(furan-2-yl)-7H-pyrazolo[4,3-e][1,2,4]triazolo[1,5-c]pyrimidin-7-yl)-2-phenyl-1-(2-oxa-6-azaspiro[3.3]heptan-6-yl)propan-1-one] |
| 103 | COCCOc1ccc(N2CCN(C(=O)C(C)(c3ccccc3)n3ncc4c3nc(N)n3nc(-c5ccco5)nc43)[C@@H](C)C2)cc1 (stereo partly drawn) [Compound A72, 2-(5-amino-2-(furan-2-yl)-7H-pyrazolo[4,3-e][1,2,4]triazolo[1,5-c]pyrimidin-7-yl)-1-((S)-4-(4-(2-methoxyethoxy)phenyl)-2-methylpiperazin-1-yl)-2-phenylpropan-1-one] |
| 4.8 | COCCOc1ccc(N2CCN(C(=O)C(C)(c3ccccc3)n3ncc4c3nc(N)n3nc(-c5ccco5)nc43)CC2)c(F)c1 (centres unmarked) [Compound A64, 2-(5-amino-2-(furan-2-yl)-7H-pyrazolo[4,3-e][1,2,4]triazolo[1,5-c]pyrimidin-7-yl)-1-(4-(2-fluoro-4-(2-methoxyethoxy)phenyl)piperazin-1-yl)-2-phenylpropan-1-one] |
| 10.9 | CN(C)CCOc1ccc(N2CCN(C(=O)C(C)(c3ccccc3)n3ncc4c3nc(N)n3nc(-c5ccco5)nc43)CC2)cc1 (single isomer, unassigned) [Compound A71a] |
| 17.3 | COCCOc1ccc(N2CCN(C(=O)C(c3ccccc3)n3ncc4c3nc(N)n3nc(-c5ccco5)nc43)CC2C)cc1 (single isomer, unassigned) [Compound A47a] |
| 0.5 | COCCOc1ccc(N2CCN(C(=O)C(c3ccccc3)n3ncc4c3nc(N)n3nc(-c5ccco5)nc43)CC2)c(F)c1 (single isomer, unassigned) [Compound A44b] |
| 59.1 | COCCOCCOc1ccc(N2CCN(C(=O)C(C)n3ncc4c3nc(N)n3nc(-c5ccco5)nc43)CC2)cc1 (centres unmarked) [Compound A9, 2-(5-amino-2-(furan-2-yl)-7H-pyrazolo[4,3-e][1,2,4]triazolo[1,5-c]pyrimidin-7-yl)-1-(4-(4-(2-(2-methoxyethoxy)ethoxy)phenyl)piperazin-1-yl)propan-1-one] |
| 1.7 | COCCOc1ccc(N2CCN(C(=O)C(C)(c3ccccc3C)n3ncc4c3nc(N)n3nc(-c5ccco5)nc43)CC2)cc1 (centres unmarked) [Compound A103, 2-(5-amino-2-(furan-2-yl)-7H-pyrazolo[4,3-e][1,2,4]triazolo[1,5-c]pyrimidin-7-yl)-1-(4-(4-(2-methoxyethoxy)phenyl)piperazin-1-yl)-2-(o-tolyl)propan-1-one] |
| 21.2 | COCCOc1ccc(N2CCN(C(=O)C(C)(c3ccccc3)n3cc4c(nc(N)n5nc(-c6ccco6)nc45)n3)CC2)cc1 (single isomer, unassigned) [Compound C25b] |
| 16.8 | COCCOc1ccc(N2CCN(C(=O)[C@](C)(c3ccccc3)n3ncc4c3nc(N)n3nc(-c5ccco5)nc43)CC2)cc1F [Compound A66a, (S)-2-(5-amino-2-(furan-2-yl)-7H-pyrazolo[4,3-e][1,2,4]triazolo[1,5-c]pyrimidin-7-yl)-1-(4-(3-fluoro-4-(2-methoxyethoxy)phenyl)piperazin-1-yl)-2-phenylpropan-1-one] |
| 69.6 | CC(C)CC(C(=O)N1CCN(c2ccc(F)cc2F)CC1)n1cc2c(nc(N)n3nc(-c4ccco4)nc23)n1 (centres unmarked) [Compound C23, 2-(5-amino-2-(furan-2-yl)-8H-pyrazolo[4,3-e][1,2,4]triazolo[1,5-c]pyrimidin-8-yl)-1-(4-(2,4-difluorophenyl)piperazin-1-yl)-4-methylpentan-1-one] |
| 17 | COCCOCCOc1ccc(N2CCN(C(=O)C(c3ccccc3)n3cc4c(nc(N)n5nc(-c6ccco6)nc45)n3)CC2)cc1 (centres unmarked) [Compound C15, 2-(5-amino-2-(furan-2-yl)-8H-pyrazolo[4,3-e][1,2,4]triazolo[1,5-c]pyrimidin-8-yl)-1-(4-(4-(2-(2-methoxyethoxy)ethoxy)phenyl)piperazin-1-yl)-2-phenylethan-1-one] |
| 0.9 | COCCOc1ccc(N2CCN(C(=O)C(c3ccccc3F)n3ncc4c3nc(N)n3nc(-c5ccco5)nc43)CC2)cc1 (centres unmarked) [Compound A43, 2-(5-amino-2-(furan-2-yl)-7H-pyrazolo[4,3-e][1,2,4]triazolo[1,5-c]pyrimidin-7-yl)-2-(2-fluorophenyl)-1-(4-(4-(2-methoxyethoxy)phenyl)piperazin-1-yl)ethan-1-one] |
| 42.9 | COCCOc1ccc(N2CCN(C(=O)C(C)n3ncc4c3nc(N)n3nc(-c5ccco5)nc43)CC2)cc1 (centres unmarked) [Compound A1, 2-(5-amino-2-(furan-2-yl)-7H-pyrazolo[4,3-e][1,2,4]triazolo[1,5-c]pyrimidin-7-yl)-1-(4-(4-(2-methoxyethoxy)phenyl)piperazin-1-yl)propan-1-one] |
| 0.2 | COCCOc1ccc(N2CCN(C(=O)C(c3ccccc3)n3ncc4c3nc(N)n3nc(-c5ccco5)nc43)CC2C)cc1 (single isomer, unassigned) [Compound A47b] |
